Experiments:
Type in all cases: biochemical
Human FXa = target: T1, Human FXa (Homo sapiens, UniProt P00742); assay: Enzyme selectivity evaluation test: FXa
T1 construct: 4) Factor Xa (FXa); purchased Enzyme Research Laboratories
Description: S-2222 (Bz-Ile-Glu(γ-OR)-Gly-Arg-pNAHC1 (SEQ ID NO: 1), R═H (50%) and R═CH3 (50%)) (manufactured by Chromogenix) was added as the substrate at a final concentration of 150 μmol/L. After progression of the reaction, the absorbance was measured at OD 405 nm.

Human FXIIa = target: T2, Human FXIIa (Homo sapiens, UniProt P00748); assay: Enzyme selectivity evaluation test: FXIIa
T2 construct: 5) Factor XIIa (FXIIa); purchased Enzyme Research Laboratories
Description: S-2288 (H-D-Ile-Pro-Arg-pNA.2HCl) was added as the substrate at a final concentration of 300 μmol/L. After progression of the reaction, the absorbance was measured at OD 405 nm.

human plasma = assay: Species difference test: aPTT prolongation in plasma
Description: (§1) The compound of Reference Example 2-6 dissolved in DMSO was added at final concentrations of 0.03 to 200 μmol/L to the plasma of each animal species prepared using 3.2% sodium citrate. The solution was incubated at 37° C. for 6 minutes. Then, an STA reagent Cephascreen (for aPTT assay; manufactured by Roche Diagnostics K.K.) was added thereto in an amount equal to the total amount of the plasma and the DMSO solution, and the mixture was further incubated for 4 minutes. Then, STA calcium chloride (manufactured by Roche Diagnostics K.K.) was added thereto in an amount equal to the total amount of the plasma and the DMSO solution, and the time required for coagulation was measured. The concentration at which the coagulation time was prolonged two times (EC2x) was calculated for each plasma.

Rat plasma = assay: as above
Description: as §1

Rabbit plasma = assay: as above
Description: as §1

Mouse plasma = assay: as above
Description: as §1

Dog plasma = assay: as above
Description: as §1

Cynomolgus monkey plasma = assay: as above
Description: as §1

T2 sequence (P00748 373-615 limits assumed): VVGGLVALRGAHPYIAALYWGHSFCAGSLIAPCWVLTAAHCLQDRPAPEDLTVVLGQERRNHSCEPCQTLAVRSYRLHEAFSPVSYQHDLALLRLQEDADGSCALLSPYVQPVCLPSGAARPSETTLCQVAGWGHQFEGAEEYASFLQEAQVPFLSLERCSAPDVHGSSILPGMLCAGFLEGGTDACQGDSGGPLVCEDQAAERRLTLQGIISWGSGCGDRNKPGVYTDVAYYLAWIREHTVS
T2 sequence (P00748 20-372 partner limits assumed): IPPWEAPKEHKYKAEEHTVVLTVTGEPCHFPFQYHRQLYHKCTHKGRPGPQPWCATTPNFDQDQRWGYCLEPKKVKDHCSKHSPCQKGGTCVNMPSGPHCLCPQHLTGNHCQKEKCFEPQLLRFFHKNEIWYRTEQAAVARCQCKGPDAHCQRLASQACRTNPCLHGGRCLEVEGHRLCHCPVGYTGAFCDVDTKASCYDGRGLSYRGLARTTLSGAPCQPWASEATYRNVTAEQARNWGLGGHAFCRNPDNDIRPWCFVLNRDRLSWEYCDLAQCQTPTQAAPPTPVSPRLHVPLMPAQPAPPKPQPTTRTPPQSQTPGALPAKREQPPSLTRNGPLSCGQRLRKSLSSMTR
T1 sequence (P00742 235-488 limits assumed): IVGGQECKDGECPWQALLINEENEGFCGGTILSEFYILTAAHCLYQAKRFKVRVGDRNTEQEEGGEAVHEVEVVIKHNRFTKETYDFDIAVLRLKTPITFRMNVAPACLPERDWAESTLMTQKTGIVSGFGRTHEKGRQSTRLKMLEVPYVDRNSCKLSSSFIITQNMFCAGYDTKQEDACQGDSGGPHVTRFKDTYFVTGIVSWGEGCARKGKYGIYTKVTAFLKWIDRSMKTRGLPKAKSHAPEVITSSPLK
T1 sequence (P00742 41-179 partner limits assumed): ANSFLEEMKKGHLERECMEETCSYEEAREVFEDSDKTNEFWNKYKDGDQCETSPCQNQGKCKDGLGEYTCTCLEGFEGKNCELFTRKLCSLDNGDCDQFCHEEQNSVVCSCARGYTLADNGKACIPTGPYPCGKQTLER

Cl.N[C@H](CF)[C@H]1CC[C@H](C(=O)N2CC[C@@H](C3CCCCC3)[C@H]2C(=O)Nc2ccc3[nH]c(C(=O)O)cc3c2)CC1 [Reference Example 2-6, 5-{[(3S)-1-({trans-4-[(1S)-1-Amino-2-fluoroethyl]cyclohexyl}carbonyl)-3-cyclohexyl-L-prolyl]amino}-1H-indole-2-carboxylic acid hydrochloride]
IC50 (Human FXa): > 10 µM
IC50 (Human FXIIa): > 10 µM
EC2x (concentration at which the coagulation time was prolonged two times) (human plasma): 0.6 µM
EC2x (concentration at which the coagulation time was prolonged two times) (Rat plasma): >200 µM
EC2x (concentration at which the coagulation time was prolonged two times) (Rabbit plasma): 34.2 µM
EC2x (concentration at which the coagulation time was prolonged two times) (Mouse plasma): >200 µM
EC2x (concentration at which the coagulation time was prolonged two times) (Dog plasma): 34.4 µM
EC2x (concentration at which the coagulation time was prolonged two times) (Cynomolgus monkey plasma): 2.6 µM

Reference: patent US9718840B2, “Condensed 5-oxazolidinone derivative” (SUMITOMO DAINIPPON PHARMA CO., LTD., priority 2014, dated 2017)
